Assay results published in patent USRE48461E1, “Modulation of androgen receptor expression” (Ionis Pharmaceuticals, Inc., priority 2012, dated 2021).
Read-outs that look alike come from different tables or passages of the source.

Key:
Type in all cases: cell-based, human
AR mRNA [1] = assay: AR RNA expression in LNCaP cells (complete, CSS, CSS+DHT medium); details: for Percent expression of AR in LNCaP cells cultured in CSS + DHT medium: CSS + DHT (1 nM) medium; for Percent expression of AR in LNCaP cells cultured in CSS + DHT medium / Percent expression of AR in LNCaP cells cultured in CSS medium: 48 hrs; for Percent expression of AR in LNCaP cells cultured in complete medium: 48 hours
Protocol: Cells were plated at 1,000 cells per well. […] After an incubation period of 48 hours, RNA levels of AR, PSA and TMPRSS2 were measured.
Cells were plated at 2,000 cells per well and cultured in phenol red-free RPMI supplemented with 5% charcoal stripped serum (Gibco) media for 16 hours. […] After an incubation period of 4 hrs, DHT was added to the medium to a final concentration of 1 nM as indicated. RNAs were collected 48 hrs later and levels of AR, PSA and TMPRSS2 were measured.

AR mRNA [2] = assay: Time-course AR mRNA expression in C4-2B cells (8, 24, 48 hours); details: for Percent expression of AR compared to the control group in 8 hours / Percent expression of AR compared to the control group in 24 hours / Percent expression of AR compared to the control group in 48 hours: C4-2B cells
Protocol: C4-2B cells were plated at 1,000 cells per well in complete medium. […] After a treatment period of 8 hours, 24 hours, and 48 hours, AR expression was measured with primer probe set hAR-LTS00943.

TMPRSS2 mRNA = assay: TMPRSS2 expression in C4-2 cells; details: 48 hrs; for Percent inhibition of TMPRSS2 expression: C4-2 cells, CSS + DHT medium
Protocol: Cells were plated at 1,000 cells per well. […] After an incubation period of 48 hrs, RNA levels of AR, PSA and TMPRSS2 were measured.
Cells were plated at 2,000 cells per well and cultured in CSS media with 1 nM DHT. […] After an incubation period of 48 hrs, RNA levels of AR, PSA and TMPRSS2 were measured.

AR mRNA [3] = assay: AR RNA expression in C4-2B cells (complete, CSS+DHT medium; Example 30); details: 48 hrs
Protocol: Cells were plated at 1,000 cells per well. […] ISIS 549148 was included as a negative control. […] After an incubation period of 48 hrs, RNA levels of AR, PSA and TMPRSS2 were measured.
Cells were plated at 2,000 cells per well and cultured in CSS media with 1 nM DHT. […] ISIS 549148 was included as a negative control. […] After an incubation period of 48 hrs, RNA levels of AR, PSA and TMPRSS2 were measured. In the absence of DHT, AR expression in C4-2 cells was 188%, PSA expression was 43% and TMPRSS2 expression was 27% compared to the untreated control.

AR V7 variant mRNA = assay: AR V7 variant RNA in 22RV1 cells; details: 48 hrs
PSA mRNA = assay: PSA expression in 22RV1 cells; details: 48 hrs
Protocol: Cells were plated at 1,000 cells per well. […] After an incubation period of 48 hrs, RNA levels of full length AR, the V7 variant, PSA and TMPRSS2 were measured.
After an incubation period of 48 hrs, RNA levels of full length AR, the V7 variant, PSA and TMPRSS2 were measured.
Cells were plated at 2,000 cells per well and cultured in CSS media for 16 hours. […] After 4 hrs, 1 nM DHT was added. […] After an incubation period of 48 hrs, RNA levels of AR, AR V7 variant, PSA and TMPRSS2 were measured.

C4-2B cells = assay: C4-2B cell proliferation, ASO in combination with MDV3100 (Example 19); details: for inhibition at 1 µM: Homo sapiens, PBS (no ASO) + MDV3100 1 μM, read-out: Percent inhibition of C4-2B cell proliferation
Protocol: C4-2B cells were plated at 1,500 cells per well. […] ISIS 347526 was included as a negative control. […] After a treatment period of 6 days, the proliferative capacity of the cancer cells was measured with CellTiter 96® AQueous One Solution Cell Proliferation kit (Promega), following the manufacturer's instructions. Results are presented in Table 46 as percent inhibition of proliferation, relative to non-treated cells. Treatment of the cells with ISIS 549372 or ISIS 549458 reduced proliferation of the cells more extensively than treatment with ISIS 554221.

With `CNC(=O)c1ccc(N2C(=S)N(c3ccc(C#N)c(C(F)(F)F)c3)C(=O)C2(C)C)cc1F` [MDV3100, 4-(3-(4-cyano-3-(trifluoromethyl)phenyl)-5,5-dimethyl-4-oxo-2-thioxoimidazolidin-1-yl)-2-fluoro-N-methylbenzamide, reference compound] the “Percent expression of AR in LNCaP cells cultured in CSS + DHT medium” value (“Percent expression of AR … in CSS + DHT medium” for short) (AR mRNA [1]; 0.04 μM) was 107%, the “Percent expression of AR … in CSS + DHT medium” value (AR mRNA [1]; 0.2 μM) was 121% and the “Percent expression of AR … in CSS + DHT medium” value (AR mRNA [1]; 1 μM) was 110%. For the same compound, the “Percent expression of AR … in CSS + DHT medium” value (AR mRNA [1]; 5.0 μM) was 113%, the “Percent expression of AR in LNCaP cells cultured in CSS medium” value (“Percent expression of AR … in CSS medium” below) (AR mRNA [1]; 0.04 μM) was 91% and the “Percent expression of AR … in CSS medium” value (AR mRNA [1]; 0.2 μM) was 67%. The “Percent expression of AR … in CSS medium” value (AR mRNA [1]; 1 μM) was 64%, the “Percent expression of AR … in CSS medium” value (AR mRNA [1]; 5.0 μM) was 77% and the “Percent expression of AR in LNCaP cells cultured in complete medium” value (“Percent expression of AR … in complete medium” for short) (AR mRNA [1]; 0.2 μM) was 133%. For the same compound, the “Percent expression of AR … in complete medium” value (AR mRNA [1]; 1 μM) was 121%, the “Percent expression of AR … in complete medium” value (AR mRNA [1]; 5.0 μM) was 139% and the “Percent expression of AR compared to the control group in 8 hours” value (from here on “Percent expression of AR … in 8 hours”) (AR mRNA [2]; 0.04 μM) was 99%. The “Percent expression of AR compared to the control group in 24 hours” value (from here on “Percent expression of AR … in 24 hours”) (AR mRNA [2]; 0.04 μM) was 88%, the “Percent expression of AR compared to the control group in 48 hours” value (from here on “Percent expression of AR … in 48 hours”) (AR mRNA [2]; 0.04 μM) was 94% and the “Percent expression of AR … in 8 hours” value (AR mRNA [2]; 0.2 μM) was 100%. For the same compound, the “Percent expression of AR … in 24 hours” value (AR mRNA [2]; 0.2 μM) was 99%, the “Percent expression of AR … in 48 hours” value (AR mRNA [2]; 0.2 μM) was 94% and the “Percent expression of AR … in 8 hours” value (AR mRNA [2]; 1 μM) was 92%. For the same compound, the “Percent expression of AR … in 24 hours” value (AR mRNA [2]; 1 μM) was 96%, the “Percent expression of AR … in 48 hours” value (AR mRNA [2]; 1 μM) was 113% and the “Percent expression of AR … in 24 hours” value (AR mRNA [2]; 5.0 μM) was 84%. For the same compound, the “Percent expression of AR … in 48 hours” value (AR mRNA [2]; 5.0 μM) was 126%, the AR expression (AR mRNA [2]; C4-2B cells, 8, 24 and 48 hours) was “increased AR expression at the 48 hour time-point” and the “Percent inhibition of TMPRSS2 expression” value (TMPRSS2 mRNA; 0.04 μM) was 9%. For the same compound, the “Percent inhibition of TMPRSS2 expression” value (TMPRSS2 mRNA; 0.2 μM) was 0%, the “Percent inhibition of TMPRSS2 expression” value (TMPRSS2 mRNA; 1 μM) was 44% and the “Percent inhibition of TMPRSS2 expression” value (TMPRSS2 mRNA; 5.0 μM) was 78%. For the same compound, the “Percent inhibition of TMPRSS2 expression in C4-2 cells cultured in complete medium” value (from here on “Percent inhibition … in complete medium”) (TMPRSS2 mRNA; 0.04 μM) was 10%, the “Percent inhibition … in complete medium” value (TMPRSS2 mRNA; 0.2 μM) was 20% and the “Percent inhibition … in complete medium” value (TMPRSS2 mRNA; 1 μM) was 44%. The “Percent inhibition … in complete medium” value (TMPRSS2 mRNA; 5.0 μM) was 67%, the “Percent expression of AR” value (AR mRNA [3]; CSS + DHT medium, 0.04 μM) was 112% and the “Percent expression of AR” value (AR mRNA [3]; CSS + DHT medium, 0.2 μM) was 144%. The “Percent expression of AR” value (AR mRNA [3]; CSS + DHT medium, 1 μM) was 165%, the “Percent expression of AR” value (AR mRNA [3]; CSS + DHT medium, 5.0 μM) was 173% and the AR expression (AR mRNA [3]; CSS+DHT medium) was “increased AR expression in the cells”. The “Percent expression of AR” value (AR mRNA [3]; complete medium, 0.04 μM) was 108%, the “Percent expression of AR” value (AR mRNA [3]; complete medium, 0.2 μM) was 121% and the “Percent expression of AR” value (AR mRNA [3]; complete medium, 1 μM) was 157%. For the same compound, the “Percent expression of AR” value (AR mRNA [3]; complete medium, 5.0 μM) was 182%, the AR expression (AR mRNA [3]; complete medium) was “increased AR expression in the cells” and the “Percent of gene expression, AR V7 variant” value (from here on “Percent … AR V7 variant”) (AR V7 variant mRNA; CSS + DHT medium, 0.04 μM) was 16%. For the same compound, the “Percent … AR V7 variant” value (AR V7 variant mRNA; CSS + DHT medium, 0.2 μM) was 17%, the “Percent … AR V7 variant” value (AR V7 variant mRNA; CSS + DHT medium, 1.0 μM) was 19% and the “Percent … AR V7 variant” value (AR V7 variant mRNA; CSS + DHT medium, 5.0 μM) was 12%. For the same compound, the “Percent … AR V7 variant” value (AR V7 variant mRNA; complete medium, 0.04 μM) was 106%, the “Percent … AR V7 variant” value (AR V7 variant mRNA; complete medium, 0.2 μM) was 98% and the “Percent … AR V7 variant” value (AR V7 variant mRNA; complete medium, 1.0 μM) was 87%. The “Percent … AR V7 variant” value (AR V7 variant mRNA; complete medium, 5.0 μM) was 77%, the “Percent of gene expression, PSA” value (PSA mRNA; CSS + DHT medium, 0.04 μM) was 15% and the “Percent of gene expression, PSA” value (PSA mRNA; CSS + DHT medium, 0.2 μM) was 19%. For the same compound, the “Percent of gene expression, PSA” value (PSA mRNA; CSS + DHT medium, 1.0 μM) was 18%, the “Percent of gene expression, PSA” value (PSA mRNA; CSS + DHT medium, 5.0 μM) was 16% and the “Percent of gene expression, PSA” value (PSA mRNA; complete medium, 0.04 μM) was 83%. The “Percent of gene expression, PSA” value (PSA mRNA; complete medium, 0.2 μM) was 70%, the “Percent of gene expression, PSA” value (PSA mRNA; complete medium, 1.0 μM) was 71% and the “Percent of gene expression, PSA” value (PSA mRNA; complete medium, 5.0 μM) was 86%. It also gave an inhibition at 1 µM (C4-2B cells; Table 46) of 38% and an inhibition at 1 µM (C4-2B cells; Table 47) of 46%.

For “GTTGATTTAATGGTTG (all phosphorothioate, sugars by position not given here; further chemistry not fully specified) [ISIS 549458]”, the “Percent inhibition of C4-2B cell proliferation with 0.1 μM ASO” value (“Percent inhibition … with 0.1 μM ASO” for short) (C4-2B cells; 0.1 μM ASO + MDV3100 1 μM, 6 days) was 75%, the “Percent inhibition … with 0.1 μM ASO” value (C4-2B cells; 0.1 μM ASO + MDV3100 […], 6 days) was 59% and the “Percent inhibition … with 0.1 μM ASO” value (C4-2B cells; 0.1 μM ASO, MDV3100 0 μM, 6 days) was 39%. For the same compound, the “Percent inhibition of C4-2B cell proliferation with 0.2 μM ASO” value (“Percent inhibition … with 0.2 μM ASO” for short) (C4-2B cells; 0.2 μM ASO + MDV3100 1 μM, 6 days) was 79%, the “Percent inhibition … with 0.2 μM ASO” value (C4-2B cells; 0.2 μM ASO + MDV3100 […], 6 days) was 75% and the “Percent inhibition … with 0.2 μM ASO” value (C4-2B cells; 0.2 μM ASO, MDV3100 0 μM, 6 days) was 74%. For the same compound, the “synergy with MDV3100” value (C4-2B cells; C4-2B cells) was “synergistic with MDV3100”, the “cell proliferation inhibited, combination” value (C4-2B cells; C4-2B cells, 0.1 μM ASO in combination with […] MDV3100) was 75% and the “inhibited cell proliferation, ASO alone” value (C4-2B cells; C4-2B cells, ASO alone at 0.1 μM) was 39%. For the same compound, the “reduced cell proliferation, ASO alone” value (C4-2B cells; C4-2B cells, ASO alone, 6 days, Table 46 (0.1 μM ASO)) was 74% and the “prostate cancer cell proliferation, ASO in combination with MDV3100” value (C4-2B cells; C4-2B cells, versus equal molar ISIS 554221 + MDV3100) was “inhibited prostate cancer cell proliferation to a greater extent than an equal molar concentration of ISIS 554221 in combination of MDV3100”.
